Test results taken from US20260191810A1, “CAROTENOID COMPOSITIONS AND USES THEREOF” (L.E.A.F. HOLDINGS GROUP LLC, priority 2019, published 2026).

Experiments:
[1] = Liposomal CTC and MTC PK, single slow intravenous bolus, plasma HPLC; type: in vivo; conditions: Balb/c mice
Protocol: 5 μL of each plasma sample was mixed with 395 μL methanol containing 1% formic acid. Sample mixtures were well mixed by vortexing. […] Samples were vortexed and then centrifuged at 10000 RPM for 10 min at room temperature. 200 μL of supernatant was removed from each sample without disturbing pellet and analyzed by HPLC. If the amount of plasma permitted, this analysis was duplicated.
The concentration of STC in the plasma samples was quantified by standard curve constructed by analyzing plasma samples containing known amount of STC. PK profiles were analyzed.

mouse CLP sepsis model = test: Survival Study 1 (TP-936), CLP sepsis efficacy; type: in vivo, C57BL/6 mice; conditions: CLP mice treated with saline and imipenem (imipenem-treated control)
Text: Male and/or female C57BL/6 mice ordered from Envigo Laboratories or the Jackson Lab (Bar Harbor, Maine) were acclimated to housing conditions and handled in accordance with Animal Use Protocol (AUP) number TP-05. The animals were acclimated for approximately 1 week prior to study start. Only animals deemed healthy were included in this study. Animals were fed irradiated Teklad Global Rodent Diet 2918 and water ad libitum. Mice were group housed 5/cage in static cages with irradiated Teklad ⅛″ corn cob bedding 7902 inside bioBubble® Clean Rooms that provide H.E.P. A filtered air into the bubble environment at 100 complete air changes per hour. The environment was controlled to a temperature range of 74°±5° F. and a humidity range of 30-70%. Treatment groups were identified by cage card. Individual mice were identified by indelible marker on the base of the tail. All procedures carried out in this experiment were conducted in compliance with the laws, regulations, and guidelines of the National Institutes of Health and with the approval of the TransPharm Animal Care and Use Committee.
On Day −1, male and/or female mice were anesthetized through use of isoflurane and brought to a surgical plane. […]
Animals were monitored continually post-surgery, at least once every 2-3 minutes for approximately 30 minutes, until the animals had recovered and were able to move about on their own. […]

SMILES	AUC [1] [µg·h/mL]	T1/2 [1] [min]	mortality (mouse CLP sepsis model) [%]
CC(/C=C/C=C(\C)C(=O)O)=C\C=C\C=C(C)\C=C\C=C(/C)C(=O)O [STC free drug, sodium trans-crocetinate]	260	28.2	
C[C@@H](O)[C@H]1C(=O)N2C(C(=O)O)=C(SCCN=CN)C[C@H]12 [imipenem]			50
